Assay [1] addresses Glycogen synthase kinase-3 beta (Homo sapiens, UniProt P49841).
The target of assay [2] is DNA topoisomerase 2-beta (Homo sapiens, UniProt Q02880).
The target in assay [3] is Dual specificity mitogen-activated protein kinase kinase 2 (Homo sapiens, UniProt P36507).
The target in assay [4] is T1, Serine/threonine-protein kinase TAO2 (Homo sapiens, UniProt Q9UL54).
T1 sequence (Q9UL54 whole entry): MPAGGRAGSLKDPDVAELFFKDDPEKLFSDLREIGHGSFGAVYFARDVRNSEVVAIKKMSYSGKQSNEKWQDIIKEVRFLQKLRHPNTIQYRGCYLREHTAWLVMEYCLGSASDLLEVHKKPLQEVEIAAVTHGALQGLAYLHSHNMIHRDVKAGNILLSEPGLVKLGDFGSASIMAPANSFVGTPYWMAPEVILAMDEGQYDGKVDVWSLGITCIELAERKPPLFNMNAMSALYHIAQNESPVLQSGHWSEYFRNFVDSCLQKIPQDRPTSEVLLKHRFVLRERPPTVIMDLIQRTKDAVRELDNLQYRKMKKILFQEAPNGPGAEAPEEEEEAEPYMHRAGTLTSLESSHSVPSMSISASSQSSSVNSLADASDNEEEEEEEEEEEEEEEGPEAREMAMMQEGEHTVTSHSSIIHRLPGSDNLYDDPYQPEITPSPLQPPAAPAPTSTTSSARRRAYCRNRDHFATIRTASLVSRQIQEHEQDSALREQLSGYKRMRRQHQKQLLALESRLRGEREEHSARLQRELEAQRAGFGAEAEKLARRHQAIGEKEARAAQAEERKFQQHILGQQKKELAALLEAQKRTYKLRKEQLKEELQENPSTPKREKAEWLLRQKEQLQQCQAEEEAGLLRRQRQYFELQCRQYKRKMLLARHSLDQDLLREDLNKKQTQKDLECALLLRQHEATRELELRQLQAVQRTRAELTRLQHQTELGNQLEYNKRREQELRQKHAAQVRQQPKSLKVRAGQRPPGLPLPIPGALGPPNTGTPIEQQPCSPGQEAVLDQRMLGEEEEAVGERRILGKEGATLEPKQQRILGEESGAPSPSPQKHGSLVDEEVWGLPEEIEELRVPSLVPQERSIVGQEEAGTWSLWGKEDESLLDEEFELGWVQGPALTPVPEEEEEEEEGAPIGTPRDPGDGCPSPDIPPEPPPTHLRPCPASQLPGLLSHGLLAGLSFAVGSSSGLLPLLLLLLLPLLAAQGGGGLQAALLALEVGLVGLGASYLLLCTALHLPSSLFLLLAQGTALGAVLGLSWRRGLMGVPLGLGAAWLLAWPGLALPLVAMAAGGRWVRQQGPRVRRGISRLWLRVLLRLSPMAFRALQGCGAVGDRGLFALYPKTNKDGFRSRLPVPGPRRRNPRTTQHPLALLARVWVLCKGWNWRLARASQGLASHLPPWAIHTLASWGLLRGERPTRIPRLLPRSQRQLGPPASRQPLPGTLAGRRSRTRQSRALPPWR

In assay [5] the target is RAC-alpha serine/threonine-protein kinase (Homo sapiens, UniProt P31749).
Assay [6] deals with Receptor-interacting serine/threonine-protein kinase 2 (Homo sapiens, UniProt O43353).
For assay [7], the target named is T2, Serine/threonine-protein kinase Nek3 (Homo sapiens, UniProt P51956).
T2 sequence (P51956 whole entry): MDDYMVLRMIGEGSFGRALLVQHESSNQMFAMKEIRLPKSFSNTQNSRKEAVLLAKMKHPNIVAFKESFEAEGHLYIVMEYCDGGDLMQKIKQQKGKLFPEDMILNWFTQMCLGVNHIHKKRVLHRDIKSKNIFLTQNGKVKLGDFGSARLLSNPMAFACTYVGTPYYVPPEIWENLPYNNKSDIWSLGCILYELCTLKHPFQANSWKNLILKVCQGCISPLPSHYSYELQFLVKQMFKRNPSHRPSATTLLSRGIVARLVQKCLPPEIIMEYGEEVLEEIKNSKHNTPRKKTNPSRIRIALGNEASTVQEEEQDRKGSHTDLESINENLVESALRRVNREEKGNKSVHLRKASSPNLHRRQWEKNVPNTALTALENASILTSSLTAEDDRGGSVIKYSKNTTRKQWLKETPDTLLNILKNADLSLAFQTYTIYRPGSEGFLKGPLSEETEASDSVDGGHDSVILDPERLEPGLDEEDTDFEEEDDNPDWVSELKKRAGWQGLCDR

Assay [8] has as its target Actin-related protein 2 (Homo sapiens, UniProt P61160).
Assay [9] addresses cAMP-dependent protein kinase type II-alpha regulatory subunit (Homo sapiens, UniProt P13861).

Counter-ions that a name gives are not always drawn. Activity calls are given as the source filed them. Rule as the data show it, for most assays here: actives have a measured Kd and inactives only a lower limit.
Also: in the data inactive means no Kd found up to 30 µM.

Dual specificity mitogen-activated protein kinase kinase 2, sequence (P36507 whole entry): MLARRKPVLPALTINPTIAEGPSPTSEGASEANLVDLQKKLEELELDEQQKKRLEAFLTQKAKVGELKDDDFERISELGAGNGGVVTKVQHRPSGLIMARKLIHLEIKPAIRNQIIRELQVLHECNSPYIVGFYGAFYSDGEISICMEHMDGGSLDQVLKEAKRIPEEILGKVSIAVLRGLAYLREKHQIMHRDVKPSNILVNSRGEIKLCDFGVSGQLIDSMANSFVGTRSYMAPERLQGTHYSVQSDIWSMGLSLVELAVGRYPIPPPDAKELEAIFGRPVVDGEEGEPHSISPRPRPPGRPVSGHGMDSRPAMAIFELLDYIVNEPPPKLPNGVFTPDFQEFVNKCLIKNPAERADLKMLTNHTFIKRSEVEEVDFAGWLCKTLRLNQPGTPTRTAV
Glycogen synthase kinase-3 beta, sequence (P49841 whole entry): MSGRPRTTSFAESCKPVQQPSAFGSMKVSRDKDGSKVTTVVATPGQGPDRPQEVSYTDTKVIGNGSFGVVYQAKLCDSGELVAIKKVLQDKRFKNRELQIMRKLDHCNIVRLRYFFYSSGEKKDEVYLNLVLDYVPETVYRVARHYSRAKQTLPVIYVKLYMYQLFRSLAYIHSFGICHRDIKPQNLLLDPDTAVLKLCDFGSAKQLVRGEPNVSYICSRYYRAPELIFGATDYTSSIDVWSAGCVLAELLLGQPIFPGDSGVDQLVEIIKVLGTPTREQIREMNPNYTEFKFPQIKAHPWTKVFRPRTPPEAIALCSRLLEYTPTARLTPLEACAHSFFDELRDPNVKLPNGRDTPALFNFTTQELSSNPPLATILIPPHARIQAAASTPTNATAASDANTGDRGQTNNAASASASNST
RAC-alpha serine/threonine-protein kinase, sequence (P31749 whole entry): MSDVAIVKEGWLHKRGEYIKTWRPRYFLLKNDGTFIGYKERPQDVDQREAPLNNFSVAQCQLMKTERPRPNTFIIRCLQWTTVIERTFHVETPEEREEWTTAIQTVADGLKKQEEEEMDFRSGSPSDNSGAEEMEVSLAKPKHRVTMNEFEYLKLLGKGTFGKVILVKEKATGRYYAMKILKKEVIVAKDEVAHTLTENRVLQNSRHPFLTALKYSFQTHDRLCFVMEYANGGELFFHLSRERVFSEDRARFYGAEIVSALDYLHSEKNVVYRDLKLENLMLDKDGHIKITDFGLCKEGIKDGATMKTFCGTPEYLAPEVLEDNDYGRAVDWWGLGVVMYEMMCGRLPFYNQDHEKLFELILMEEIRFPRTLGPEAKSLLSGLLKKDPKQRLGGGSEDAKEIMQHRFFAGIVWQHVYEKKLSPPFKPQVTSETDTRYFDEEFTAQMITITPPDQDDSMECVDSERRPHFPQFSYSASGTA
DNA topoisomerase 2-beta, sequence (Q02880 whole entry): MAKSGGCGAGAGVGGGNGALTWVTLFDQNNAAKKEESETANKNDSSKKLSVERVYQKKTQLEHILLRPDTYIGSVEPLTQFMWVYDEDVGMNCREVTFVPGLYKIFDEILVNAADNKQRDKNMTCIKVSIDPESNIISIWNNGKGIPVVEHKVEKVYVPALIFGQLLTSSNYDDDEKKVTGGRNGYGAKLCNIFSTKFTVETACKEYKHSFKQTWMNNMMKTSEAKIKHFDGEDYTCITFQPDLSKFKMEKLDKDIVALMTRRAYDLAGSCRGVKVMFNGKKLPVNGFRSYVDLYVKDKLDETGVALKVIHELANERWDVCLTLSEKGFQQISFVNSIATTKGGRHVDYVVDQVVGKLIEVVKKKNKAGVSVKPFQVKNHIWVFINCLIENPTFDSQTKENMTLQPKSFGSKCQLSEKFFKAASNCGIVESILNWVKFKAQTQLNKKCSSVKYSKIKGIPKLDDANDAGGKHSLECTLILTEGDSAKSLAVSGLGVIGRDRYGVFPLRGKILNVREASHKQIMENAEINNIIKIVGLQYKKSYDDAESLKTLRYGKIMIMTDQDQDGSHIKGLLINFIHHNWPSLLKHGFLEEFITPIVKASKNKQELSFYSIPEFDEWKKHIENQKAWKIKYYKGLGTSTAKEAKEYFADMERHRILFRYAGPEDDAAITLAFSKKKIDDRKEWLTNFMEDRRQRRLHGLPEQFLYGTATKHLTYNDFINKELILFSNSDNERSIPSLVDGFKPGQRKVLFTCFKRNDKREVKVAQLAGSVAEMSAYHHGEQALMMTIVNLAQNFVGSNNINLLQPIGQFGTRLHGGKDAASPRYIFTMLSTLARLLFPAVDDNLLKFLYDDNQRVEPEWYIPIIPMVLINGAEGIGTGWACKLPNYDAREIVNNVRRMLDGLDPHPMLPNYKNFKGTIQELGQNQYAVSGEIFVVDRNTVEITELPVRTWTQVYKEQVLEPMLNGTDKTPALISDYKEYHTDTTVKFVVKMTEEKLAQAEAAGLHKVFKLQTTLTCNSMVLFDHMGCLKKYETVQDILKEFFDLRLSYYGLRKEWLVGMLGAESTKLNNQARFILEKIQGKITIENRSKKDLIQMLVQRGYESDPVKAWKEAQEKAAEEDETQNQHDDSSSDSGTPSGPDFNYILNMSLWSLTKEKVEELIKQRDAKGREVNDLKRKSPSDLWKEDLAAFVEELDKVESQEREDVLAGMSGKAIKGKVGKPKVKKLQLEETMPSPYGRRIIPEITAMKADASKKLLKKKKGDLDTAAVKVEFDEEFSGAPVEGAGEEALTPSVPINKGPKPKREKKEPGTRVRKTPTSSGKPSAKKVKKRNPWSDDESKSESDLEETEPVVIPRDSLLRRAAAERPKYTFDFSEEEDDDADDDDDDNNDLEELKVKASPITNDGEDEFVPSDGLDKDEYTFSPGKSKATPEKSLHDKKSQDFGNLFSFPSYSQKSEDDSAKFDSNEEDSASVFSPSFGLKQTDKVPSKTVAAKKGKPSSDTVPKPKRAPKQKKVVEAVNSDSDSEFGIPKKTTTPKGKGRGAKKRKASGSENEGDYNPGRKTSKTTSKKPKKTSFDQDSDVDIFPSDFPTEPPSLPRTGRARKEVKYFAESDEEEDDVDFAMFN
cAMP-dependent protein kinase type II-alpha regulatory subunit, sequence (P13861 whole entry): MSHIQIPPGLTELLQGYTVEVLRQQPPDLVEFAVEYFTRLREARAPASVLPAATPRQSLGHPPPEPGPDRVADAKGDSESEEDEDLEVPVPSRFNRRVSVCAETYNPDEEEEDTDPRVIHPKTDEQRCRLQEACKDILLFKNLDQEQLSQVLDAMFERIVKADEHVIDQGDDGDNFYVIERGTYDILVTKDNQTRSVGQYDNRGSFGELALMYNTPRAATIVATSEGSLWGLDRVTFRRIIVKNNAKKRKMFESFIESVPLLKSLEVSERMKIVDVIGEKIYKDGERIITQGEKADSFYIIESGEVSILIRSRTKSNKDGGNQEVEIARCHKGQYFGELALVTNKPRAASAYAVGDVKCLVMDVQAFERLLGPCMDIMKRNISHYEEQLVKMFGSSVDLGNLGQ
Receptor-interacting serine/threonine-protein kinase 2, sequence (O43353 whole entry): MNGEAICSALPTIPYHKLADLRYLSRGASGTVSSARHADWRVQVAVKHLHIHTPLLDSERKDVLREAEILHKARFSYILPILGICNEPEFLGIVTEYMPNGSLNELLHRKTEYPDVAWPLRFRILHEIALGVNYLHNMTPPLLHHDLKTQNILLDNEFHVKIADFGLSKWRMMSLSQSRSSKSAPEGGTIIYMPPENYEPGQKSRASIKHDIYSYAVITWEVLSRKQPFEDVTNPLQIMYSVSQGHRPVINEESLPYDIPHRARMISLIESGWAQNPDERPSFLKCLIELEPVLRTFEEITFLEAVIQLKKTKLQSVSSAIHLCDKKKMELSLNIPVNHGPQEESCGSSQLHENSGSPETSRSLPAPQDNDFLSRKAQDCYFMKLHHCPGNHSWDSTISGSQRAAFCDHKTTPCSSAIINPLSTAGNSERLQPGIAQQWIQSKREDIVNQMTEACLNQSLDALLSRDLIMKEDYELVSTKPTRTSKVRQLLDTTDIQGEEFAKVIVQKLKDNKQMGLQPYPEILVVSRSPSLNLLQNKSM

A word on the Kd: it is a measure of binding affinity in units of concentration. Consider `C[C@@H](Oc1cc(C(=O)Nc2ccc(C(=O)N3CCN(C)CC3)cc2)nnc1N)c1c(Cl)ccc(F)c1Cl`, for which the Kd in [1], in assay [2], in assay [3], in [4], in assay [5] and in assay [6] was > 30 µM (inactive) each time. Moreover, the Kd in [7] is > 30 µM (inactive).

With `C[C@H]1CNCCCN1S(=O)(=O)c1cccc2cncc(F)c12`, the Kd in assay [1], in [2], in [3], in assay [4], in assay [5] and in [8] was > 30 µM (inactive) each time. The Kd in [6], in assay [9] and in assay [7] was > 30 µM (inactive) each time.

With `Cc1csc(-c2nnc(Nc3ccc(Oc4ncccc4-c4ccnc(N)n4)cc3)c3ccccc23)c1` [AMG-900], the Kd was > 30 µM (inactive) in [1]; 2.6 µM in assay [2]; 3.49 µM (active) in assay [3]; > 30 µM (inactive) in assay [4]; > 30 µM (inactive) in [5]; > 30 µM (inactive) in [8]. In addition, the Kd in assay [6], in assay [9] and in assay [7] was > 30 µM (inactive) in each case.

On to `C=CC(=O)Nc1cc2c(Nc3ccc(F)c(Cl)c3)ncnc2cc1C#CC(C)(C)N1CCN(C)CC1` [AV-412 FREE BASE], for which the Kd in assay [1], in assay [2], in assay [3], in assay [4], in assay [5] and in [8] was > 30 µM (inactive) each time. Besides, the Kd in assay [6], in assay [9] and in assay [7] was > 30 µM (inactive) each time.

As to `NC(=O)Nc1cc(-c2cccc(F)c2)sc1C(=O)N[C@H]1CCCNC1` [AZD-7762], the Kd in [1] was > 30 µM (inactive); in assay [2], > 30 µM (inactive); in [3], 1.22 µM (active); in [4], > 30 µM (inactive); in assay [5] it was > 30 µM (inactive); in assay [8], > 30 µM (inactive). Also, the Kd in assay [6], in [9] and in [7] was > 30 µM (inactive) each time.

`CCS(=O)(=O)N1CCN(c2ccc(Nc3ncc(C(N)=O)c(NC4CC4)n3)cc2)CC1` [Cerdulatinib Hydrochloride]: the Kd in assay [1] was > 30 µM (inactive); in assay [2] it was > 30 µM (inactive); in assay [3], > 30 µM (inactive); in assay [4] it was 2.22 µM (active); in assay [5], > 30 µM (inactive); in [6], > 30 µM (inactive). The Kd in assay [9] was > 30 µM (inactive); in assay [7], 1.1 µM (active).

On to `Cc1nc2cc(-n3ncc(C(=O)c4cc5ccccc5[nH]4)c3N)ccc2[nH]1` [FGFR INHIBITOR DEBIO 1347], for which the Kd in [1], in assay [2], in assay [3], in assay [4], in assay [5] and in [8] was > 30 µM (inactive) each time. Besides, the Kd in assay [6], in assay [9] and in [7] was > 30 µM (inactive) each time.

Turning to `O=C(Nc1nc2cccc(-c3ccc(CN4CCS(=O)(=O)CC4)cc3)n2n1)C1CC1` [FILGOTINIB], the Kd in assay [1], in assay [2], in [3], in assay [4], in assay [5] and in assay [8] was > 30 µM (inactive) each time. Moreover, the Kd in assay [6], in assay [9] and in [7] was > 30 µM (inactive) in each case.

On to `COc1ccc(S(=O)(=O)N(C(C)=O)c2ccccc2/C=C/c2cc[n+]([O-])cc2)cc1` [HMN-214], for which the Kd in [1], in assay [2], in assay [3], in assay [4], in assay [5] and in assay [8] was > 30 µM (inactive) in each case. Also, the Kd in [6], in assay [9] and in assay [7] was > 30 µM (inactive) throughout.

For `COc1ncc(-c2ccc3nccc(-c4ccnnc4)c3c2)cc1NS(=O)(=O)c1ccc(F)cc1F` [OMIPALISIB], the Kd in assay [1], in [2], in assay [3], in assay [4], in assay [5] and in [8] was > 30 µM (inactive) throughout. Also, the Kd in assay [6], in assay [9] and in [7] was > 30 µM (inactive) throughout.

For the compound `NC(=O)c1c(OCc2c(F)cc(Br)cc2F)nsc1NC(=O)NCCCCN1CCCC1` [OSI-632], the Kd in assay [2] was > 30 µM (inactive); in assay [4] it was > 30 µM (inactive); in [8] it was > 30 µM (inactive); in [6] it was 0.958 µM (active); in assay [9], > 30 µM (inactive); in assay [7], > 30 µM (inactive).

With `CNC(=O)c1cc(Oc2ccc(NC(=O)Nc3cc(C(C)(C)C)nn3-c3ccc4ncccc4c3)c(F)c2)ccn1` [REBASTINIB], the Kd in assay [1], in [2], in assay [3], in assay [4], in [5] and in assay [8] was > 30 µM (inactive) in each case. Besides, the Kd in [6], in assay [9] and in assay [7] was > 30 µM (inactive) throughout.

With `Cn1ncc(Cl)c1-c1cc(C(=O)N[C@H](CN)Cc2ccc(F)c(F)c2)oc1Cl` [UPROSERTIB], the Kd in assay [1], in assay [2], in [3], in assay [4], in [6] and in [9] was > 30 µM (inactive) throughout. Moreover, in assay [7], the Kd was > 30 µM (inactive).

Regarding `C[C@@H](N)c1ccc(C(=O)Nc2ccnc3[nH]ccc23)cc1` [Y-39983], the Kd was 0.924 µM (active) in [1]; > 30 µM (inactive) in assay [2]; > 30 µM (inactive) in [3]; > 30 µM (inactive) in assay [4]; > 30 µM (inactive) in [5]; > 30 µM (inactive) in [8]. Also, the Kd in [6] and in assay [7] was > 30 µM (inactive) in each case.
